Results: publication PMC3691600, “Conversion of fatty aldehydes into alk (a/e)nes by in vitro reconstituted cyanobacterial aldehyde-deformylating oxygenase with the cognate electron transfer system” (Biotechnology for Biofuels, 2013)

Biological target: FNR (SynPcc7942_0978) (Synechococcus elongatus, UniProt Q31PL1)
Assay: UV/vis absorption spectrum of purified enzyme
Format: binding
Settings: noncovalently bound; as purified; flavin identity inferred from spectrum and FNR homology

FNR (SynPcc7942_0978), sequence (Q31PL1 1-403): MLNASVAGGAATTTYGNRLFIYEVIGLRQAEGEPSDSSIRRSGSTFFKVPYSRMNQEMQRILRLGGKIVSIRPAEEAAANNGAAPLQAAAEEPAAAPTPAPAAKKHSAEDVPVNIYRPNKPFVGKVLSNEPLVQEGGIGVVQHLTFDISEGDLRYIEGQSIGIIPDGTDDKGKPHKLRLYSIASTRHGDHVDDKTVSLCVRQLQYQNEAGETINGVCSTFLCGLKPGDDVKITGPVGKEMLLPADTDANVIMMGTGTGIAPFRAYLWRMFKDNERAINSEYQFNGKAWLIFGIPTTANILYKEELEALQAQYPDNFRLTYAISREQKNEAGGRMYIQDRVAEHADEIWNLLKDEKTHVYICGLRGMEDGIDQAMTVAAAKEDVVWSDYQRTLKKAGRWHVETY

`Cc1cc2nc3c(=O)[nH]c(=O)nc-3n(C[C@H](O)[C@H](O)[C@H](O)COP(=O)(O)OP(=O)(O)OC[C@H]3O[C@@H](n4cnc5c(N)ncnc54)[C@H](O)[C@@H]3O)c2cc1C` [FAD] was tested. Which “UV/vis absorption spectrum of purified enzyme” value did it give?
Its value is “demonstrating that FNR is certainly a flavoprotein”.
